Laboratory results reported in PubChem BioAssay AID256 (DTP/NCI, 2004).
Where “and” joins values, the source holds several entries; their conditions need not be identical. Equal entries are not always repeated. Toxic doses and inconclusive results are not listed. Rule for the calls: active = survival T/C of 150% or more; inactive = T/C below 125% in these data.

System: CD2F1 mice, L1210 leukemia ip, survival T/C
Assay: NCI In Vivo Anticancer Drug Screen. Data for tumor model L1210 Leukemia (intraperitoneal) in CD2F1 (CDF1) mice
Conditions: endpoint: mean survival time, higher = longer survival
In short: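 Tumor-bearing mice (transplanted tumor) were split into treated and vehicle control groups, and the measured endpoint of each treated group was divided by that of its vehicle controls.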

[1] = dose: 100.0 mg/kg/injection, schedule: Q04DX003 (ip), vehicle: saline
[2] = dose: 200.0 mg/kg/injection, schedule: Q04DX003 (ip), vehicle: saline
[3] = dose: 400.0 mg/kg/injection, schedule: Q04DX003 (ip), vehicle: saline
[4] = dose: 50.0 mg/kg/injection, schedule: Q01DX009 (ip), vehicle: saline with Tween-80
[5] = dose: 100.0 mg/kg/injection, schedule: Q01DX009 (ip), vehicle: saline with Tween-80
[6] = dose: 100.0 mg/kg/injection, schedule: Q04DX003 (ip), vehicle: saline with Tween-80
[7] = dose: 200.0 mg/kg/injection, schedule: Q04DX003 (ip), vehicle: saline with Tween-80
[8] = dose: 75.0 mg/kg/injection, schedule: Q01DX001 (ip), vehicle: saline
[9] = dose: 150.0 mg/kg/injection, schedule: Q01DX001 (ip), vehicle: saline
[10] = dose: 400.0 mg/kg/injection, schedule: Q04DX003 (ip), vehicle: saline with Tween-80

Measured: T/C

Nc1n[nH]c(N)n1
inactive: dose: 3.2 mg/kg/injection, schedule: Q## X008 (iv), vehicle: water 100 % of control | dose: 6.3 mg/kg/injection, schedule: Q## X008 (iv), vehicle: water 103 % of control | dose: 12.5 mg/kg/injection, schedule: Q## X004 (iv), vehicle: water 100 % of control | dose: 12.5 mg/kg/injection, schedule: Q## X008 (iv), vehicle: water 102 % of control | dose: 25.0 mg/kg/injection, schedule: Q## X004 (iv), vehicle: water 104 % of control | dose: 25.0 mg/kg/injection, schedule: Q## X008 (iv), vehicle: water 101 % of control | dose: 50.0 mg/kg/injection, schedule: Q03HX024 (ip), vehicle: saline 103 % of control | dose: 50.0 mg/kg/injection, schedule: Q## X004 (iv), vehicle: water 103 % of control | dose: 50.0 mg/kg/injection, schedule: Q## X008 (iv), vehicle: water 103 % of control | dose: 50.0 mg/kg/injection, schedule: Q## X068 (ip), vehicle: water 110 % of control | dose: 50.0 mg/kg/injection, schedule: Q#A X002 (iv), vehicle: water 106 % of control | dose: 100.0 mg/kg/injection, schedule: Q01DX007 (ip), vehicle: saline 113 % of control | dose: 100.0 mg/kg/injection, schedule: Q01DX009 (ip), vehicle: saline 104 % of control | dose: 100.0 mg/kg/injection, schedule: Q03DX003 (ip), vehicle: saline 105 % of control | dose: 100.0 mg/kg/injection, schedule: Q03HX024 (ip), vehicle: saline 117 % of control and 103 % of control and 112 % of control | [1] 105 % of control | dose: 100.0 mg/kg/injection, schedule: Q## X004 (iv), vehicle: water 105 % of control | dose: 100.0 mg/kg/injection, schedule: Q## X008 (iv), vehicle: water 102 % of control | dose: 100.0 mg/kg/injection, schedule: Q#A X002 (iv), vehicle: water 96 % of control | dose: 100.0 mg/kg/injection, schedule: Q#A X034 (ip), vehicle: water 118 % of control | dose: 200.0 mg/kg/injection, schedule: Q01DX017 (ip), vehicle: water 113 % of control | dose: 200.0 mg/kg/injection, schedule: Q03DX003 (ip), vehicle: saline 105 % of control | [2] 106 % of control | dose: 200.0 mg/kg/injection, schedule: Q## X004 (iv), vehicle: water 105 % of control | dose: 200.0 mg/kg/injection, schedule: Q#A X002 (iv), vehicle: water 103 % of control | dose: 200.0 mg/kg/injection, schedule: Q#A X010 (ip), vehicle: water 106 % of control | dose: 400.0 mg/kg/injection, schedule: Q01DX001 (iv), vehicle: water 104 % of control | dose: 400.0 mg/kg/injection, schedule: Q03DX003 (ip), vehicle: saline 113 % of control | [3] 106 % of control | dose: 400.0 mg/kg/injection, schedule: Q## X068 (ip), vehicle: water 116 % of control | dose: 400.0 mg/kg/injection, schedule: Q#A X002 (iv), vehicle: water 110 % of control | dose: 400.0 mg/kg/injection, schedule: Q#A X010 (ip), vehicle: water 113 % of control | dose: 512.0 mg/kg/injection, schedule: Q12HX018 (ip), vehicle: saline 104 % of control | dose: 800.0 mg/kg/injection, schedule: Q01DX001 (iv), vehicle: water 103 % of control | dose: 800.0 mg/kg/injection, schedule: Q#A X002 (iv), vehicle: water 110 % of control | dose: 800.0 mg/kg/injection, schedule: Q#A X010 (ip), vehicle: water 122 % of control | dose: 800.0 mg/kg/injection, schedule: Q#A X034 (ip), vehicle: water 97 % of control | dose: 1024.0 mg/kg/injection, schedule: Q12HX018 (ip), vehicle: saline 120 % of control | dose: 1600.0 mg/kg/injection, schedule: Q01DX001 (iv), vehicle: water 105 % of control
active: dose: 200.0 mg/kg/injection, schedule: Q## X068 (ip), vehicle: water 190 % of control | dose: 400.0 mg/kg/injection, schedule: Q03HX024 (ip), vehicle: saline 203 % of control and 221 % of control and 237 % of control | dose: 400.0 mg/kg/injection, schedule: Q#A X018 (ip), vehicle: water 203 % of control | dose: 400.0 mg/kg/injection, schedule: Q#A X034 (ip), vehicle: water 208 % of control | dose: 800.0 mg/kg/injection, schedule: Q01DX017 (ip), vehicle: water 150 % of control | dose: 800.0 mg/kg/injection, schedule: Q#A X018 (ip), vehicle: water 181 % of control | dose: 1600.0 mg/kg/injection, schedule: Q01DX017 (ip), vehicle: water 165 % of control

COc1cc(C=O)cc(O)c1O
inactive: dose: 50.0 mg/kg/injection, schedule: Q01DX001 (ip), vehicle: saline 94 % of control | dose: 100.0 mg/kg/injection, schedule: Q01DX001 (ip), vehicle: saline 96 % of control | [1] 95 % of control | dose: 200.0 mg/kg/injection, schedule: Q01DX001 (ip), vehicle: saline 91 % of control | [2] 92 % of control | dose: 400.0 mg/kg/injection, schedule: Q01DX001 (ip), vehicle: saline 89 % of control | [3] 92 % of control

CCCOS(=O)(=O)c1ccc(Cl)c([N+](=O)[O-])c1
inactive: [4] 97 % of control | [5] 90 % of control | [6] 94 % of control | [7] 89 % of control

NC(=O)c1ccc[n+](Cc2ccccc2)c1
inactive: [8] 98 % of control | [9] 96 % of control

NC(=O)Nc1n[nH]c(-c2ccccc2)n1
inactive: [6] 93 % of control | [7] 91 % of control | [10] 91 % of control

O=C1C2=C(C(=O)C3=C1C1CCC3C1)C1CCC2C1
inactive: dose: 25.0 mg/kg/injection, schedule: Q04DX002 (ip), vehicle: saline with Tween-80 105 % of control | dose: 50.0 mg/kg/injection, schedule: Q04DX002 (ip), vehicle: saline with Tween-80 101 % of control | dose: 100.0 mg/kg/injection, schedule: Q04DX002 (ip), vehicle: saline with Tween-80 108 % of control

c1ccc2c(c1)nnn1c3ncccc3nc21
inactive: [8] 98 % of control | [9] 92 % of control | dose: 300.0 mg/kg/injection, schedule: Q01DX001 (ip), vehicle: saline 93 % of control

COc1ccccc1C(=O)C(=O)c1ccccc1OC
inactive: [6] 100 % of control | [7] 96 % of control | [10] 100 % of control

Cc1ccn(C)c(=N)c1
inactive: dose: 100.0 mg/kg/injection, schedule: Q01DX009 (ip), vehicle: saline sonified 97 % of control | [6] 94 % of control | dose: 200.0 mg/kg/injection, schedule: Q01DX009 (ip), vehicle: saline sonified 98 % of control | [7] 93 % of control | [10] 93 % of control

CC1(C)CC1(Br)Br
inactive: dose: 6.25 mg/kg/injection, schedule: Q01DX009 (ip), vehicle: saline with Tween-80 94 % of control and 112 % of control | dose: 12.5 mg/kg/injection, schedule: Q01DX009 (ip), vehicle: saline with Tween-80 94 % of control and 106 % of control | dose: 25.0 mg/kg/injection, schedule: Q01DX009 (ip), vehicle: saline with Tween-80 102 % of control and 112 % of control | [4] 100 % of control and 110 % of control | [5] 93 % of control and 106 % of control | dose: 200.0 mg/kg/injection, schedule: Q01DX009 (ip), vehicle: saline with Tween-80 97 % of control and 100 % of control

CC(C)(C)OC(=O)Cc1ccccc1
inactive: dose: 100.0 mg/kg/injection, schedule: Q01DX001 (ip), vehicle: saline with Tween-80 91 % of control | dose: 200.0 mg/kg/injection, schedule: Q01DX001 (ip), vehicle: saline with Tween-80 97 % of control | dose: 400.0 mg/kg/injection, schedule: Q01DX001 (ip), vehicle: saline with Tween-80 94 % of control

Cc1ccc(C2CC(c3ccccc3)=NN2C)cc1 (stereo not drawn)
inactive: dose: 75.0 mg/kg/injection, schedule: Q01DX001 (ip), vehicle: other 96 % of control | dose: 150.0 mg/kg/injection, schedule: Q01DX001 (ip), vehicle: other 90 % of control | dose: 300.0 mg/kg/injection, schedule: Q01DX001 (ip), vehicle: other 93 % of control

Cc1ccc2nc(-c3ccc(NC(=O)Nc4cccc(F)c4)cc3)sc2c1
inactive: [4] 97 % of control | [5] 97 % of control

C=CCOC(=O)Oc1ccccc1Cl
inactive: [5] 102 % of control | [6] 98 % of control | [7] 95 % of control
